Assay results reported in article PMC8231556, “Inhibiting Endothelial Cell Function in Normal and Tumor Angiogenesis Using BMP Type I Receptor Macrocyclic Kinase Inhibitors” (Cancers, 2021).

Assays:
Assay in all cases: radiometric kinase profiling (33 PanQinase)
Assay type in all cases: biochemical
[1] = target: T1, ABL1 (Homo sapiens, UniProt P00519); details: read-out: Inhibitory effect (%) ABL1
T1 construct: purchased Proqinase, Germany
Method: (§1) The kinase inhibition profile of the compounds was determined by testing 96 protein kinases’ activity using a radiometric protein kinase assay (33 PanQinase® Activity Assay, Proqinase, Germany). In brief, 10 µL of non-radioactive ATP solution (in H2O), 25 µL of assay buffer/[γ-33 P]-ATP mixture, 5 µL of 0.1 μM the tested compound in 10% DMSO and 10 µL of enzyme/substrate were mixed in 96-well FlashPlatesTM (Perkin Elmer, Boston, MA, USA). The reaction was conducted at 30 °C for 60 min. To stop the reaction, 50 µL of 2% (v/v) H3PO4 was added into the protein kinase reaction cocktails. After which, with 200 µL 0.9% (w/v) NaCl twice, the incorporation of ^33 Pi (counting of “cpm”) was determined with a microplate scintillation counter (Wallac Microbeta, Boston, MA, USA). All protein kinase assays were performed using a BeckmanCoulter Biomek 2000/SL robotic system (Brea, CA, USA). The residual activity (in %) for each compound was normalized to 100% enzyme activity (untreated control) and background (negative control).

[2] = target: T2, CAMKK1 (Homo sapiens, UniProt Q8N5S9); details: read-out: Inhibitory effect (%) CAMKK1
T2 construct: purchased Proqinase, Germany
T2 sequence (Q8N5S9 whole entry): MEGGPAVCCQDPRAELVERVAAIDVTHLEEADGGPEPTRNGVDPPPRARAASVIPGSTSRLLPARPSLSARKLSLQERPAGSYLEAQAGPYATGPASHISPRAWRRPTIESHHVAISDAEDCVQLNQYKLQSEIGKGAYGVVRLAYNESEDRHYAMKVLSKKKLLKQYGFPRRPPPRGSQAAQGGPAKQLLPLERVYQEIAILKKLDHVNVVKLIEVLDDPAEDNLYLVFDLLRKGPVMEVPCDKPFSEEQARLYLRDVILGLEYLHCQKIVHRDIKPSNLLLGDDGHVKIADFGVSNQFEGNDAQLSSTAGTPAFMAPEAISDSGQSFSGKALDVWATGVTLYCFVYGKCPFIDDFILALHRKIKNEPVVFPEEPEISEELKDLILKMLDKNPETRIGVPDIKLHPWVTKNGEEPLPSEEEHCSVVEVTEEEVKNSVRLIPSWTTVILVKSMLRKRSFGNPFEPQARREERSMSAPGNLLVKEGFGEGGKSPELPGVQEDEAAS
Method: as §1

[3] = target: T3, CSNK2A1 (Homo sapiens, UniProt P68400); details: read-out: Inhibitory effect (%) CSNK2A1
T3 construct: purchased Proqinase, Germany
T3 sequence (P68400 whole entry): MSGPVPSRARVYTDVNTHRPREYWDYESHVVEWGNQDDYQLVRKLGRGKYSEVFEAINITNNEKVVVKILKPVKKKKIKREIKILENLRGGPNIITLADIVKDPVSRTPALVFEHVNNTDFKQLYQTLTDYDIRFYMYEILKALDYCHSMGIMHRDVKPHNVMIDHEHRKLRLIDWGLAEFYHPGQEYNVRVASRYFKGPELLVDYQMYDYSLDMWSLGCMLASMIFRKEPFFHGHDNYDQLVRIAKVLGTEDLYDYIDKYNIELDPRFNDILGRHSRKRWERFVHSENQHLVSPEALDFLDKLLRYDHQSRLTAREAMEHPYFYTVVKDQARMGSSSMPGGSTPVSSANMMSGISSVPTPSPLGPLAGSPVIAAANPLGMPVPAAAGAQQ
Method: as §1

[4] = target: T4, EGFR (Homo sapiens, UniProt P00533); details: read-out: Inhibitory effect (%) EGFR
T4 construct: purchased Proqinase, Germany
T4 sequence (P00533 25-1210): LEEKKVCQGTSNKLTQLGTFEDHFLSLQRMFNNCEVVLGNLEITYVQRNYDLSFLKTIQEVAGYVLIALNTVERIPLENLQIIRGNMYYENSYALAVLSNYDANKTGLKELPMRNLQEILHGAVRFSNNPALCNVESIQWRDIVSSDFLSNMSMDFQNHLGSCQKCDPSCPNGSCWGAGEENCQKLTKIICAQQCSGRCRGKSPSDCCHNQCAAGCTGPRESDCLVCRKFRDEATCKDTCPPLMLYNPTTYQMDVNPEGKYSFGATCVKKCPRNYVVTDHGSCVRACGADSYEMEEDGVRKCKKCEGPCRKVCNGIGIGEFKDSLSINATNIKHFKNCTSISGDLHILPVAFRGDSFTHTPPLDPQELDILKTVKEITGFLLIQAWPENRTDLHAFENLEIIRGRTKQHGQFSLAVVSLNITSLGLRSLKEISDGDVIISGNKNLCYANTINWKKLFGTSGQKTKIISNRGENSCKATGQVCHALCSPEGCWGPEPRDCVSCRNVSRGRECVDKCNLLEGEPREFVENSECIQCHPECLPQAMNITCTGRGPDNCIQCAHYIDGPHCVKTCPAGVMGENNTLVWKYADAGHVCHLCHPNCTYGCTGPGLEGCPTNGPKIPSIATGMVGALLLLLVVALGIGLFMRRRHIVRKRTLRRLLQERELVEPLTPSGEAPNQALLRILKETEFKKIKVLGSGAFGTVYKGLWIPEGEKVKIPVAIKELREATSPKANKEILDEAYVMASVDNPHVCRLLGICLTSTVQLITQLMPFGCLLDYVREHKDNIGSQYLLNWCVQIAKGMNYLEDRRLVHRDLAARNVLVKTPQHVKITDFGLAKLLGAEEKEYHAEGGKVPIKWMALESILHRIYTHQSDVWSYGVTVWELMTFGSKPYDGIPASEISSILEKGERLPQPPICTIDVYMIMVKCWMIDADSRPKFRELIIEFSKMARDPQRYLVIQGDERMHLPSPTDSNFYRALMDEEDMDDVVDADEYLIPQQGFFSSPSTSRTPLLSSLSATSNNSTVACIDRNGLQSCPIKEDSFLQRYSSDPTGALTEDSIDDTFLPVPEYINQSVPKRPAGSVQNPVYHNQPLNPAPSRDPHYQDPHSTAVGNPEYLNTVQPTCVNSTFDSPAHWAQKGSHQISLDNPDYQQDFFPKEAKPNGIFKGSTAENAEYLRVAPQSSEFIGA
Method: as §1

[5] = target: T5, EIF2AK1 (Homo sapiens, UniProt Q9BQI3); details: read-out: Inhibitory effect (%) EIF2AK1
T5 construct: purchased Proqinase, Germany
T5 sequence (Q9BQI3 whole entry): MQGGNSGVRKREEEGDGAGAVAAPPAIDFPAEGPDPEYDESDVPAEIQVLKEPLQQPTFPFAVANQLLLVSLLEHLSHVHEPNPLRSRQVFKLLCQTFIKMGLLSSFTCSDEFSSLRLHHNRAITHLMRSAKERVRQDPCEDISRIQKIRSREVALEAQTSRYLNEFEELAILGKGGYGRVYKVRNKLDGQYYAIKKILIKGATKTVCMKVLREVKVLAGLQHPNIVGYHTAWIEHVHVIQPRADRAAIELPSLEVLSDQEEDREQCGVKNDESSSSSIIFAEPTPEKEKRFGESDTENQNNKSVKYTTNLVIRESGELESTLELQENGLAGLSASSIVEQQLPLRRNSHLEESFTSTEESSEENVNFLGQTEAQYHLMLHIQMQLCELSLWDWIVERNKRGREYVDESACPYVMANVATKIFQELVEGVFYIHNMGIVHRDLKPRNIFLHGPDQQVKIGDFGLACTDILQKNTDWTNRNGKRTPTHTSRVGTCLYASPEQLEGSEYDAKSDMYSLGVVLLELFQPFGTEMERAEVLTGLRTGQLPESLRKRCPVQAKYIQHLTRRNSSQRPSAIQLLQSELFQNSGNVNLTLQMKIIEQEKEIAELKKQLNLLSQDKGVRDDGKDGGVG
Method: as §1

[6] = target: T6, EPHA2 (Homo sapiens, UniProt P29317); details: read-out: Inhibitory effect (%) EPHA2
T6 construct: purchased Proqinase, Germany
Method: as §1

[7] = target: T7, FYN (Homo sapiens, UniProt P06241); details: read-out: Inhibitory effect (%) FYN
T7 construct: purchased ProQinase (33PanQinase Activity Assay)
Method: as §1

[8] = target: T8, NEK6 (Homo sapiens, UniProt Q9HC98); details: read-out: Inhibitory effect (%) NEK6
T8 construct: purchased ProQinase (33PanQinase Activity Assay)
T8 sequence (Q9HC98 whole entry): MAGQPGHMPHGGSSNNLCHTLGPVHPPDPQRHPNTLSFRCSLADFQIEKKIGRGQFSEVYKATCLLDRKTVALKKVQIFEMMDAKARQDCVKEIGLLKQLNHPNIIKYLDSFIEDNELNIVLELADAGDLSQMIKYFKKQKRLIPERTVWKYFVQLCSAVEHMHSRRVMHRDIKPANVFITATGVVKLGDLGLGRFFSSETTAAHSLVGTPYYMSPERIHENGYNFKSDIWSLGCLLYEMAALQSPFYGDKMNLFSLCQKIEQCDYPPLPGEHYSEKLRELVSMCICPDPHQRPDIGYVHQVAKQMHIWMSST
Method: as §1

[9] = target: T9, PDGFRA (Homo sapiens, UniProt P16234); details: read-out: Inhibitory effect (%) PDGFRA
T9 construct: purchased ProQinase (33PanQinase Activity Assay)
Method: as §1

[10] = target: T10, PIM2 (Homo sapiens, UniProt Q9P1W9); details: read-out: Inhibitory effect (%) PIM2
T10 construct: purchased ProQinase (33PanQinase Activity Assay)
T10 sequence (Q9P1W9 whole entry): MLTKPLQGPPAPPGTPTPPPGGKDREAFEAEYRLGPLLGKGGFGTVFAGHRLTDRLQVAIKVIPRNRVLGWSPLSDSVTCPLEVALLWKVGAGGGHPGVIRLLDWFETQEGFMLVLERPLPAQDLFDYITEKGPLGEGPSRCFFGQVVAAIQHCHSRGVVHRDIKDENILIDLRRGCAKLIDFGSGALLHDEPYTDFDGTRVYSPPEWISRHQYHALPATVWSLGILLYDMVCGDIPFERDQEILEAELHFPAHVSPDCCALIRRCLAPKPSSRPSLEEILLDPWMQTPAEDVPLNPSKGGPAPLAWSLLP
Method: as §1

[11] = target: T11, PLK4 (Homo sapiens, UniProt O00444); details: read-out: Inhibitory effect (%) PLK4
T11 construct: purchased ProQinase (33PanQinase Activity Assay)
T11 sequence (O00444 1-970): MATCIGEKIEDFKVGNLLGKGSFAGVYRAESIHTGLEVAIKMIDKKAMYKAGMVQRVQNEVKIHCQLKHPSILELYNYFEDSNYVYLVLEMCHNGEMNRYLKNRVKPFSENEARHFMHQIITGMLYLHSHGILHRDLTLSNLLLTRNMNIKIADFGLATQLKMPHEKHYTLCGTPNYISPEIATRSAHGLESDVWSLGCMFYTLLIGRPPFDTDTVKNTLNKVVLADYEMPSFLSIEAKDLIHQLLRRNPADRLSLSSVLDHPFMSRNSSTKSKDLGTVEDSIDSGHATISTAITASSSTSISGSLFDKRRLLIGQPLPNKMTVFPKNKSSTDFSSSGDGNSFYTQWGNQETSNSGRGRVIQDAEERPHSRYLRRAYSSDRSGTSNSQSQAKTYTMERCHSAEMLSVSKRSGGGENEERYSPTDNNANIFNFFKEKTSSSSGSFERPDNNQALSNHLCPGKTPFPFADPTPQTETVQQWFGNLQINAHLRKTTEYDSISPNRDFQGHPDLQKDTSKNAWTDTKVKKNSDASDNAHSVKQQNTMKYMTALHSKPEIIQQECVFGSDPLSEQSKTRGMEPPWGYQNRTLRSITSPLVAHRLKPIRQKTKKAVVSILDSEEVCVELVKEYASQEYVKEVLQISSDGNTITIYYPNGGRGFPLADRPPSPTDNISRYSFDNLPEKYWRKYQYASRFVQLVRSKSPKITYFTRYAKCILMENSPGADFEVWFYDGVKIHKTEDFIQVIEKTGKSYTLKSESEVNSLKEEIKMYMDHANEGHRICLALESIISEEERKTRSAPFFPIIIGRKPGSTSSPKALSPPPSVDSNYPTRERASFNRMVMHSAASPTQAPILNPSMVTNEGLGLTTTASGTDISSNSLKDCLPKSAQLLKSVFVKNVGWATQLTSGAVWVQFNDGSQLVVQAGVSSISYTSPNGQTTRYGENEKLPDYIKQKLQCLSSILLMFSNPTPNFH
Method: as §1

[12] = target: T12, RET (Homo sapiens, UniProt P07949); details: read-out: Inhibitory effect (%) RET
T12 construct: purchased ProQinase (33PanQinase Activity Assay)
Method: as §1

[13] = target: T13, SLK (Homo sapiens, UniProt Q9H2G2); details: read-out: Inhibitory effect (%) SLK
T13 construct: purchased ProQinase (33PanQinase Activity Assay)
T13 sequence (Q9H2G2 whole entry): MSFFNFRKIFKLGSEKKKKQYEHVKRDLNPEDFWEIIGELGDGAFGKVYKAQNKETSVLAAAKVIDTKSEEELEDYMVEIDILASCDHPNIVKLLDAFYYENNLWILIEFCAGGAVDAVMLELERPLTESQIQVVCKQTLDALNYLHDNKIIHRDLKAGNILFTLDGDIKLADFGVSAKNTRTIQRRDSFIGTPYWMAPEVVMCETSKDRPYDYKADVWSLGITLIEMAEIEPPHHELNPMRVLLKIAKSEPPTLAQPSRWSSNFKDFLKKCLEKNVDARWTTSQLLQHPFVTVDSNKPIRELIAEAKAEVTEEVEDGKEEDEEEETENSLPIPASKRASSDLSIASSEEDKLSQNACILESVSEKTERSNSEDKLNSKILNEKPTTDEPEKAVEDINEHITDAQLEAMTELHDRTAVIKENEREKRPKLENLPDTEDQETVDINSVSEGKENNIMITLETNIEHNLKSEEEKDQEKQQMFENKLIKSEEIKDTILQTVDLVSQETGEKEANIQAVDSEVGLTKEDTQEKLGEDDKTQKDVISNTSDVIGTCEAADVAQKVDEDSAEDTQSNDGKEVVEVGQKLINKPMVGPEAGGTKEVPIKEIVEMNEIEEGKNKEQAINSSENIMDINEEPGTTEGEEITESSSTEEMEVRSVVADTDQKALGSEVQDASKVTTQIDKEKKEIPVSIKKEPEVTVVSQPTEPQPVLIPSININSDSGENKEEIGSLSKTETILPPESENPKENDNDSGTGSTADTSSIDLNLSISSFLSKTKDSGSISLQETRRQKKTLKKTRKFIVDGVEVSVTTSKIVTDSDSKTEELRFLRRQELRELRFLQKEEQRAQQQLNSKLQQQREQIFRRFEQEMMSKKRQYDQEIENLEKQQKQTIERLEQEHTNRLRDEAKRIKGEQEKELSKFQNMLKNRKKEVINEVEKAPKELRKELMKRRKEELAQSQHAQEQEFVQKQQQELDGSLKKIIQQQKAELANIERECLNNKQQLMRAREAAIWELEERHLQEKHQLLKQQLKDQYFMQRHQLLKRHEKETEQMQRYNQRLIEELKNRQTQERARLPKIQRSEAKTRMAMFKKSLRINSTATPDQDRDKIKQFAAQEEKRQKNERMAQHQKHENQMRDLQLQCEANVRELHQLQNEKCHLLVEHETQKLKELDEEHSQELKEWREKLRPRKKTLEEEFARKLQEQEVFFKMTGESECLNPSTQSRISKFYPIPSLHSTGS
Method: as §1

SMILES	inhibition at 0.1 µM [1] [%]	inhibition at 0.1 µM [2] [%]	inhibition at 0.1 µM [3] [%]	inhibition at 0.1 µM [4] [%]	inhibition at 0.1 µM [5] [%]	inhibition at 0.1 µM [6] [%]	inhibition at 0.1 µM [7] [%]	inhibition at 0.1 µM [8] [%]	inhibition at 0.1 µM [9] [%]	inhibition at 0.1 µM [10] [%]	inhibition at 0.1 µM [11] [%]	inhibition at 0.1 µM [12] [%]	inhibition at 0.1 µM [13] [%]
CN1CCC(=O)NCCNc2ccn3ncc(c3n2)-c2cccc(c2)C1 [OD29]	18.7	-29.5	-1.02	-8.91	-0.05	10.4	24.6	4.01	-9.93	1.97	4.1	27.1	27.7
CN1CCc2cccc(c2)Nc2nccc(n2)N2CCCc3cc(ccc32)C1 [OD16]	-20.1	-1.72	-9.27	-13	-7.88	-21.9	-31	-21.1	-16	-5.63	41.4	-29.1	26.5
c1ccc2c(-c3cnn4cc(-c5ccc(N6CCNCC6)cc5)cnc34)ccnc2c1 [LDN-193189, reference compound]	12.5	0.77	-10.9	2.46	-16.3	-17.2	28.1	7.05	3.63	6.22	-34.4	10.8	-18.4
